The values below come from paper PMC5933747 (PLoS ONE, 2018).

Like-named read-outs stand apart in the source and are kept apart here.

For this series, the target named is human NaV1.5 (Homo sapiens, UniProt Q14524). Description: IonWorks Quattro (IWQ) electrophysiology, human NaV1.5. The format is cell-based. (Patch clamp records ionic current or voltage across a cell membrane.)
Where [1] appears, read: human, read-out: Glu mutant IWQ IC50 NaV1.5.
The mark [2] stands for this setting: human, read-out: Ala mutant IWQ IC50 NaV1.5.
Where [3] appears, read: IWQ platform, single-residue Ala scan of JzTx-V, read-out: Ala mutant IWQ IC50 NaV1.5.

Sequence of human NaV1.5 (Q14524 whole entry): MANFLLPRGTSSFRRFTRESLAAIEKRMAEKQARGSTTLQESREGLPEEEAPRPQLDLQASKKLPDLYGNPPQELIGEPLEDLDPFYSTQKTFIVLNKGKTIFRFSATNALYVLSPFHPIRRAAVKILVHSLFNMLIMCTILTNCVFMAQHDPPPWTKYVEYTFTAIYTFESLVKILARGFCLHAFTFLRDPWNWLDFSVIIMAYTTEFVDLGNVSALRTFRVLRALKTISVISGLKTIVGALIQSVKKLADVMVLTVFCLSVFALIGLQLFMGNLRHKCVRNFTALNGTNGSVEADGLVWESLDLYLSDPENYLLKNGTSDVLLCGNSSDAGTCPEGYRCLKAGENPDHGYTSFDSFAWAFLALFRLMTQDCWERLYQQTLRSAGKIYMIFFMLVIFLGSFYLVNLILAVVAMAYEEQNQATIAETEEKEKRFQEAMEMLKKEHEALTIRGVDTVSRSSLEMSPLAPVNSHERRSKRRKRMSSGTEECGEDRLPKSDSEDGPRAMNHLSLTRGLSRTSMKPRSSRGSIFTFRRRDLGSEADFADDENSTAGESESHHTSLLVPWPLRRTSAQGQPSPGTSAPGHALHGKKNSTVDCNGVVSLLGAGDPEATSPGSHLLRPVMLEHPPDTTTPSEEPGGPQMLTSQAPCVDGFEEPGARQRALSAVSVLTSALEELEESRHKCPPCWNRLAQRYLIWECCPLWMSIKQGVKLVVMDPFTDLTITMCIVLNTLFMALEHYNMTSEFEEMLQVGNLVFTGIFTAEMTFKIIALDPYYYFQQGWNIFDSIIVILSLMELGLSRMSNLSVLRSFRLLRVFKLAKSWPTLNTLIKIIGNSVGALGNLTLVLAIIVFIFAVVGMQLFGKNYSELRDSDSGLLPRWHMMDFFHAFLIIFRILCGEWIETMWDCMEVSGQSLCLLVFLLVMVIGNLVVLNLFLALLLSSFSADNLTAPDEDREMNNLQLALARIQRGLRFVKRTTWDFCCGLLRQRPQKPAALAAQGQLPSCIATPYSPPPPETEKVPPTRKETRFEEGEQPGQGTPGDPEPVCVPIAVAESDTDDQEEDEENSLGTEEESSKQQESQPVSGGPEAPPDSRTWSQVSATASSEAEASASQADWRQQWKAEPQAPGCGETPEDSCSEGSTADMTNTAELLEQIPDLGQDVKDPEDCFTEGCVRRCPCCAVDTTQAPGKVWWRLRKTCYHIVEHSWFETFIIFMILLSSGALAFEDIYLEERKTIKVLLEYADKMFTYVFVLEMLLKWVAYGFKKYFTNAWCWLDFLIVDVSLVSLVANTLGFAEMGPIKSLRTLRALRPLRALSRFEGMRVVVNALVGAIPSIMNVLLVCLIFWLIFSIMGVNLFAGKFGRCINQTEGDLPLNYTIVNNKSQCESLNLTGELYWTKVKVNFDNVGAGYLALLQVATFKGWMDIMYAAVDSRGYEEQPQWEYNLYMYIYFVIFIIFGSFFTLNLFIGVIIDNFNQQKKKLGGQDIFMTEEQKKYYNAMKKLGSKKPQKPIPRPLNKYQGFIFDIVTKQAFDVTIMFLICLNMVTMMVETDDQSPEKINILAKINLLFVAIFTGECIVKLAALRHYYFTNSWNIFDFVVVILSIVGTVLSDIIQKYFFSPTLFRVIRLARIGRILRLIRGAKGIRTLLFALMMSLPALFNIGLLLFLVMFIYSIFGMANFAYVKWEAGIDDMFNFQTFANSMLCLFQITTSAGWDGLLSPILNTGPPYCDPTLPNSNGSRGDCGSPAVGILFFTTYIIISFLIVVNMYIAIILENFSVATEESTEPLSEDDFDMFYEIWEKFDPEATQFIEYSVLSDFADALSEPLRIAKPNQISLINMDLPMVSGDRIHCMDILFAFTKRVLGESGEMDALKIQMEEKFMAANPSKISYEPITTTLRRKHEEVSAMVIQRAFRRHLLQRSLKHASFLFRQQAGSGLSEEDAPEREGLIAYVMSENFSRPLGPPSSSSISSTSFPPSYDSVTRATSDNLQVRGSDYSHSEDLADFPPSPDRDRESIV

On to `CC[C@H](C)[C@H](NC(=O)[C@H](CCCCN)NC(=O)[C@H](CCCNC(=N)N)NC(=O)[C@@H]1CSSC[C@@H]2NC(=O)[C@H](C)NC(=O)[C@H](CCCNC(=N)N)NC(=O)[C@H](CCCCN)NC(=O)[C@H](CO)NC(=O)[C@H](CC(=O)O)NC(=O)[C@@H]3CSSC[C@H](NC(=O)[C@H](CCCNC(=N)N)NC(=O)[C@H](CC(C)C)NC(=O)CNC(=O)[C@H](CCC(=O)O)NC(=O)[C@H](CSSC[C@H](NC(=O)[C@@H](N)Cc4ccc(O)cc4)C(=O)N[C@@H](CCC(N)=O)C(=O)N[C@@H](CCCCN)C(=O)N[C@@H](Cc4c[nH]c5ccccc45)C(=O)N[C@@H](CCSC)C(=O)N[C@@H](Cc4c[nH]c5ccccc45)C(=O)N[C@@H]([C@@H](C)O)C(=O)N3)NC2=O)C(=O)N[C@@H](CCCCN)C(=O)N[C@@H](CC(C)C)C(=O)N[C@@H](Cc2c[nH]c3ccccc23)C(=O)N1)C(=O)N[C@@H](CCC(=O)O)C(N)=O` [I29 Glu mutant], for which the half-inhibitory concentration (IC50) (commonly the midpoint of a concentration-inhibition curve) under setting [1] was greater than 5 µM.

In the case of `CC[C@H](C)[C@H](NC(=O)[C@@H](NC(=O)[C@H](CCCCN)NC(=O)[C@H](CCCNC(=N)N)NC(=O)[C@@H]1CSSC[C@@H]2NC(=O)[C@H](C)NC(=O)[C@H](CCCNC(=N)N)NC(=O)[C@H](C)NC(=O)[C@H](CO)NC(=O)[C@H](CC(=O)O)NC(=O)[C@@H]3CSSC[C@H](NC(=O)[C@H](CCCNC(=N)N)NC(=O)[C@H](CC(C)C)NC(=O)CNC(=O)[C@H](CCC(=O)O)NC(=O)[C@H](CSSC[C@H](NC(=O)[C@@H](N)Cc4ccc(O)cc4)C(=O)N[C@@H](CCC(N)=O)C(=O)N[C@@H](CCCCN)C(=O)N[C@@H](Cc4c[nH]c5ccccc45)C(=O)N[C@@H](CCSC)C(=O)N[C@@H](Cc4c[nH]c5ccccc45)C(=O)N[C@@H]([C@@H](C)O)C(=O)N3)NC2=O)C(=O)N[C@@H](CCCCN)C(=O)N[C@@H](CC(C)C)C(=O)N[C@@H](Cc2c[nH]c3ccccc23)C(=O)N1)[C@@H](C)CC)C(N)=O` [K12 Ala mutant], the IC50 under setting [2] was greater than 5 µM.

On to `CC[C@H](C)[C@H](NC(=O)[C@@H](NC(=O)[C@H](CCCCN)NC(=O)[C@H](CCCNC(=N)N)NC(=O)[C@@H]1CSSC[C@@H]2NC(=O)[C@H](CCC(=O)O)NC(=O)[C@H](CCCNC(=N)N)NC(=O)[C@H](CCCCN)NC(=O)[C@H](CO)NC(=O)[C@H](CC(=O)O)NC(=O)[C@@H]3CSSC[C@H](NC(=O)[C@H](CCCNC(=N)N)NC(=O)[C@H](CC(C)C)NC(=O)CNC(=O)[C@H](CCC(=O)O)NC(=O)[C@H](CSSC[C@H](NC(=O)[C@@H](N)Cc4ccc(O)cc4)C(=O)N[C@@H](CCC(N)=O)C(=O)N[C@@H](CCCCN)C(=O)N[C@@H](Cc4c[nH]c5ccccc45)C(=O)N[C@@H](CCSC)C(=O)N[C@@H](Cc4c[nH]c5ccccc45)C(=O)N[C@@H]([C@@H](C)O)C(=O)N3)NC2=O)C(=O)N[C@@H](CCCCN)C(=O)N[C@@H](CC(C)C)C(=O)N[C@@H](Cc2c[nH]c3ccccc23)C(=O)N1)[C@@H](C)CC)C(N)=O` [A14 Glu mutant], for which, under setting [1], the IC50 was greater than 5 µM.

Consider `CC[C@H](C)[C@H](NC(=O)[C@@H](NC(=O)[C@H](CCCCN)NC(=O)[C@H](CCCNC(=N)N)NC(=O)[C@@H]1CSSC[C@@H]2NC(=O)[C@H](C)NC(=O)[C@H](CCCNC(=N)N)NC(=O)[C@H](CCCCN)NC(=O)[C@H](CO)NC(=O)[C@H](CC(=O)O)NC(=O)[C@@H]3CSSC[C@H](NC(=O)[C@H](CCCNC(=N)N)NC(=O)[C@H](CC(C)C)NC(=O)CNC(=O)[C@H](CCC(=O)O)NC(=O)[C@H](CSSC[C@H](NC(=O)[C@@H](N)Cc4ccc(O)cc4)C(=O)N[C@@H](CCC(N)=O)C(=O)N[C@@H](CCCCN)C(=O)N[C@@H](Cc4c[nH]c5ccccc45)C(=O)N[C@@H](CCSC)C(=O)N[C@@H](Cc4c[nH]c5ccccc45)C(=O)N[C@@H]([C@@H](C)O)C(=O)N3)NC2=O)C(=O)N[C@@H](C)C(=O)N[C@@H](CC(C)C)C(=O)N[C@@H](Cc2c[nH]c3ccccc23)C(=O)N1)[C@@H](C)CC)C(N)=O` [K22 Ala mutant], for which the IC50 under setting [2] is greater than 5 µM.

Regarding `CC[C@H](C)[C@H](NC(=O)[C@H](C)NC(=O)[C@H](CCCCN)NC(=O)[C@H](CCCNC(=N)N)NC(=O)[C@@H]1CSSC[C@@H]2NC(=O)[C@H](C)NC(=O)[C@H](CCCNC(=N)N)NC(=O)[C@H](CCCCN)NC(=O)[C@H](CO)NC(=O)[C@H](CC(=O)O)NC(=O)[C@@H]3CSSC[C@H](NC(=O)[C@H](CCCNC(=N)N)NC(=O)[C@H](CC(C)C)NC(=O)CNC(=O)[C@H](CCC(=O)O)NC(=O)[C@H](CSSC[C@H](NC(=O)[C@@H](N)Cc4ccc(O)cc4)C(=O)N[C@@H](CCC(N)=O)C(=O)N[C@@H](CCCCN)C(=O)N[C@@H](Cc4c[nH]c5ccccc45)C(=O)N[C@@H](CCSC)C(=O)N[C@@H](Cc4c[nH]c5ccccc45)C(=O)N[C@@H]([C@@H](C)O)C(=O)N3)NC2=O)C(=O)N[C@@H](CCCCN)C(=O)N[C@@H](CC(C)C)C(=O)N[C@@H](Cc2c[nH]c3ccccc23)C(=O)N1)C(N)=O` [I28 Ala mutant], the IC50 under setting [2] is greater than 5 µM.

As for `CC[C@H](C)[C@H](NC(=O)[C@@H](NC(=O)[C@H](CCCCN)NC(=O)[C@H](CCCNC(=N)N)NC(=O)[C@@H]1CSSC[C@@H]2NC(=O)[C@H](C)NC(=O)[C@H](CCCNC(=N)N)NC(=O)[C@H](CCCCN)NC(=O)[C@H](CO)NC(=O)[C@H](CC(=O)O)NC(=O)[C@@H]3CSSC[C@H](NC(=O)[C@H](CCCNC(=N)N)NC(=O)[C@H](CC(C)C)NC(=O)CNC(=O)[C@H](CCC(=O)O)NC(=O)[C@H](CSSC[C@H](NC(=O)[C@H](C)N)C(=O)N[C@@H](CCC(N)=O)C(=O)N[C@@H](CCCCN)C(=O)N[C@@H](Cc4c[nH]c5ccccc45)C(=O)N[C@@H](CCSC)C(=O)N[C@@H](Cc4c[nH]c5ccccc45)C(=O)N[C@@H]([C@@H](C)O)C(=O)N3)NC2=O)C(=O)N[C@@H](CCCCN)C(=O)N[C@@H](CC(C)C)C(=O)N[C@@H](Cc2c[nH]c3ccccc23)C(=O)N1)[C@@H](C)CC)C(N)=O` [Y1 Ala mutant], the IC50 under setting [3] was found to be 3.07 µM.

Take `CC[C@H](C)[C@H](NC(=O)[C@@H](NC(=O)[C@H](CCCCN)NC(=O)[C@H](CCCNC(=N)N)NC(=O)[C@@H]1CSSC[C@@H]2NC(=O)[C@H](C)NC(=O)[C@H](CCCNC(=N)N)NC(=O)[C@H](CCCCN)NC(=O)[C@H](C)NC(=O)[C@H](CC(=O)O)NC(=O)[C@@H]3CSSC[C@H](NC(=O)[C@H](CCCNC(=N)N)NC(=O)[C@H](CC(C)C)NC(=O)CNC(=O)[C@H](CCC(=O)O)NC(=O)[C@H](CSSC[C@H](NC(=O)[C@@H](N)Cc4ccc(O)cc4)C(=O)N[C@@H](CCC(N)=O)C(=O)N[C@@H](CCCCN)C(=O)N[C@@H](Cc4c[nH]c5ccccc45)C(=O)N[C@@H](CCSC)C(=O)N[C@@H](Cc4c[nH]c5ccccc45)C(=O)N[C@@H]([C@@H](C)O)C(=O)N3)NC2=O)C(=O)N[C@@H](CCCCN)C(=O)N[C@@H](CC(C)C)C(=O)N[C@@H](Cc2c[nH]c3ccccc23)C(=O)N1)[C@@H](C)CC)C(N)=O` [S11 Ala mutant]: the IC50 under setting [3] turned out to be 3.56 µM.

Take `CC[C@H](C)[C@H](NC(=O)[C@@H](NC(=O)[C@H](CCCCN)NC(=O)[C@H](CCCNC(=N)N)NC(=O)[C@@H]1CSSC[C@@H]2NC(=O)[C@H](C)NC(=O)[C@H](CCCNC(=N)N)NC(=O)[C@H](CCCCN)NC(=O)[C@H](CO)NC(=O)[C@H](CC(=O)O)NC(=O)[C@@H]3CSSC[C@H](NC(=O)[C@H](CCCNC(=N)N)NC(=O)[C@H](CC(C)C)NC(=O)CNC(=O)[C@H](CCC(=O)O)NC(=O)[C@H](CSSC[C@H](NC(=O)[C@@H](N)Cc4ccc(O)cc4)C(=O)N[C@@H](CCC(N)=O)C(=O)N[C@@H](CCCCN)C(=O)N[C@@H](Cc4c[nH]c5ccccc45)C(=O)N[C@@H](CCSC)C(=O)N[C@@H](C)C(=O)N[C@@H]([C@@H](C)O)C(=O)N3)NC2=O)C(=O)N[C@@H](CCCCN)C(=O)N[C@@H](CC(C)C)C(=O)N[C@@H](Cc2c[nH]c3ccccc23)C(=O)N1)[C@@H](C)CC)C(N)=O` [W7 Ala mutant]: the IC50 under setting [2] was greater than 5 µM.
